US20050042213A1, “Methods and pharmaceutical compositions for modulating heparanase activation and uses thereof” (InSight Biopharmaceuticals Ltd., priority 2003, published 2005)
Each block holds one molecule with its values, some of them ahead of it. Where a SMILES comes first, the peptide text is derived from it. [ ]: non-standard residue; d: D form. The star is where a group is joined. Sta = CC(C)C[C@H](N)[C@@H](O)CC(=O)O; Isovaleryl = CC(C)CC(=O)*

Columns and labels:
293 cell extract = experiment: Cleavage of Z-Pro-Lys-Lys-Glu-AMC (Peptide 1) by 293 cell extract and its inhibition by protease inhibitors; format: biochemical, human; set-up: % Inhibition: concentration or dose not given beside the values; settings: inhibition of Z-Pro-Lys-Lys-Glu-AMC cleavage by 293 cell extract
Experimental: Following a 20 minutes incubation at 37° C., fluorescence released due to proteolytic activity was determined using a BMG POLARstar™ Galaxy fluorometer: excitation at 390 nm and emission at 460 nm.

pro-heparanase (H60) [1] = target: T1, pro-heparanase (H60) (Homo sapiens, UniProt Q9Y251, K307R); experiment: Processing and activation of pro-heparanase in vitro with cathepsin B and D in the presence of heparin (Western blot, DMB assay); format: biochemical; settings: cathepsin B and/or cathepsin D; for activation of pro-heparanase in vitro (heparanase activity): heparin-sepharose
T1 sequence (Q9Y251 36-543 K307R): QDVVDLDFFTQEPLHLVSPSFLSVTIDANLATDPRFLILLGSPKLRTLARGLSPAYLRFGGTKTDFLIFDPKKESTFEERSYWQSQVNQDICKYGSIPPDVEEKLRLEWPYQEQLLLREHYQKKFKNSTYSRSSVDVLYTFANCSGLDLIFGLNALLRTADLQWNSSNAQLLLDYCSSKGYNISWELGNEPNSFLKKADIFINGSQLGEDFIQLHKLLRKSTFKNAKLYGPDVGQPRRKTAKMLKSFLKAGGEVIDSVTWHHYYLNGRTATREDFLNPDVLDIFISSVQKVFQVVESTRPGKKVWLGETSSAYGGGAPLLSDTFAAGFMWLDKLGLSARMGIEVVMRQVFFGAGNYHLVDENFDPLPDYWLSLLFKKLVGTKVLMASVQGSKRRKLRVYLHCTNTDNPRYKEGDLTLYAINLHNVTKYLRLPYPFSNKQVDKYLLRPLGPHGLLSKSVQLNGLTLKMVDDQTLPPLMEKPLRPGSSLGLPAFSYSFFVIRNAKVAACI
Experimental: Western blot analysis—Western blot analysis was performed using rabbit anti-heparanase polyclonal antibodies as described in U.S. Pat. Nos. 6,177,545; 6,531,129; and 6,562,950.
Following a 17 hours incubation at room temperature, reaction products were filtered to a new plate and quantified using di-methyl-methylene-blue, as described in U.S. Pat. No. 6,190,875.
Assay mixtures contained heparin (Sigma, H3393) or heparinomimetic molecules ethane-1,2-disulfonic acid (Sigma, E2269) and heparin disaccharide IVA (Sigma, H0895) for western blot analysis or heparin sepharose beads for activation assays, in 200 mM acetate buffer, pH 5.5, 4 mM EDTA and 8 mM DTT, with either Cathepsin B, Cathepsin D or both. Following a 17 hours of incubation at room temperature, reaction products were examined by western blot analysis or filtered to a new plate and quantified using di-methyl-methylene-blue, as described in U.S. Pat. No. 6,190,875 for activation assay.

Cathepsin B = settings: value reported in the literature (M. Murata et al., FEBS Lett., 280, 307, 1991); cited from earlier work
pro-heparanase (H60) [2] = target: T1, pro-heparanase (H60); experiment: Pro-heparanase activation in a cell-based assay (293 cells, DMB assay); settings: inhibition of pro-heparanase activation (H60); Table 15
β-FGF = target: T2, β-FGF (Homo sapiens, UniProt P09038); experiment: Elisa assay for binding of β-FGF to heparin; settings: inhibition of β-FGF binding to heparin
T2 construct: purchased Sigma F0291
T2 sequence (P09038 143-288): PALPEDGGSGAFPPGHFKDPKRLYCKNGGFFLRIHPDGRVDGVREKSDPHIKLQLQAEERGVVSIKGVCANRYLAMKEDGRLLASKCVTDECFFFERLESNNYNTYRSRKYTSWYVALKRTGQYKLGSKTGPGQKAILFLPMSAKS
Experimental: Elisa assay for determination of binding of β-FGF to heparin—96 well microplates were coated overnight with Heparin-albumin (Lizard) and blocked with 1% BSA in PBS with 0.05% Tween and 0.01% thimerosal for 2 hrs. β-FGF was added to the plates at a concentration of 0.8 ng/ml and incubated for 45 min at 23-25° C. The amount of β-FGF bound to heparin was detected using anti-FGF monoclonal antibody (Sigma Cat. # F6162) at a concentration of 2.5 ng/ml and secondary antibodies Sheep anti-mouse IgG linked to horseradish peroxidase (1:3000). TMB (Pierce Cat. #34021) was used as a substrate for peroxidase.
(§1) The plates were read at 450 nm with a reference wavelength of 630 nm using a VERSAmax plate reader. […] Percent inhibition was calculated as compared with the control reactions pre-incubated with 1% DMSO only.

VEGF = target: T3, VEGF (Homo sapiens, UniProt P15692); experiment: Elisa assay for binding of VEGF to heparin; settings: inhibition of VEGF binding to heparin
T3 sequence (P15692 27-191 isoform P15692-4): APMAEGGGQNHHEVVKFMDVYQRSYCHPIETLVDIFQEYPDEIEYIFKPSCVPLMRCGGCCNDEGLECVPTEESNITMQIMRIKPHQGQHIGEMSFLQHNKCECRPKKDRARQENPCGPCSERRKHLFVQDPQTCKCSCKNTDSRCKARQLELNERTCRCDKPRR
Experimental: Elisa assay for determination of binding of VEGF to heparin—96 well microplates were coated overnight with Heparin-albumin (Lizard) and blocked with 1% BSA in PBS with 0.05% Tween and 0.01% thimerosal for 2 hrs. VEGF was added to the plates at a concentration of 2 ng/ml and incubated for 45 min. at 23-25° C. The amount of VEGF bound to heparin was detected using anti-VEGF monoclonal antibody (Sigma Cat. # V4758) at a concentration of 0.26 μg/ml and secondary antibodies Sheep anti-mouse IgG linked to horseradish peroxidase (1:2000). TMB (Pierce Cat. #34021) was used as a substrate for peroxidase.
as §1

heparanase (H53) = target: T4, heparanase (H53) (Homo sapiens, UniProt Q9Y251, K307R); experiment: Heparanase activity inhibition (H53), DMB assay; format: biochemical; settings: for IC50: heparanase activity inhibition (H53), NI = no inhibition
T4 sequence (Q9Y251 158-543 K307R limits assumed): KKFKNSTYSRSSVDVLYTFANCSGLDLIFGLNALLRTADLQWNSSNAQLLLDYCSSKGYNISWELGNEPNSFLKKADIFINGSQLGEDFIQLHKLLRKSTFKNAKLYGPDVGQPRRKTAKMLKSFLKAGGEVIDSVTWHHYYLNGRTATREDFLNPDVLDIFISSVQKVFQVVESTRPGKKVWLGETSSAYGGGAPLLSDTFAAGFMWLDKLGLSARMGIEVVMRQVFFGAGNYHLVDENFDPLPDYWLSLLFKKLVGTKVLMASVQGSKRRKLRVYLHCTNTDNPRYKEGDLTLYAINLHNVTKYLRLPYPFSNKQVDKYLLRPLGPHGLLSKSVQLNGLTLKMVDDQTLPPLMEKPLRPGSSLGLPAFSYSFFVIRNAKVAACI
T4 sequence (Q9Y251 36-109 limits assumed): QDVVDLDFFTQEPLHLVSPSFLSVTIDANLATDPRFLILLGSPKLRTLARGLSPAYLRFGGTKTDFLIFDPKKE
Experimental: At the end of the incubation, the cells were lysed by three consecutive cycles of freezing and thawing in a −80° C. Freezer and a 37° C. shaker. Formation of active heparanase was detected by determination of heparanase activity in DMB assay as described in patent application U.S. Pat. No. 6,190,875B.

HUVEC cells = experiment: Cord Formation Assay; format: cell-based; settings: Homo sapiens; HUVEC cells on matrigel, 24 h; read-out: Inhibition of cord formation IC50
Experimental: (§2) Cord formation and cell migration assays were executed following explicit directives provided by the inventors of the present invention by the National Cancer Institute (Biological Testing Branch, Developmental Therapeutics Program, DCTD, NCI, Fairview Center, Suite 205, 1003 West 7th Street, Frederick, Md. 21701-8527).
Cord Formation Assay—Matrigel (60 μl of 10 mg/ml; Collaborative Lab # 35423) was placed in each well of an ice-cold 96-well plate. The plate was incubated at room temperature for 15 minutes and then transferred to 37° C. for 30 minutes to permit matrigel polymerization. Concomitantly with plate coating, HUVEC cells were diluted in EGM-2 (Clonetic # CC3162) at a concentration of 2×10^5 cells/ml. Each test compound was prepared at a 2 fold higher concentration than desired (5 concentration levels) using the same medium. Cells (500 μl) and 2× drug (500 μl) were mixed and 200 μl of this suspension were placed in duplicates on the polymerized matrigel. Following 24 h incubation, triplicate pictures were taken for each concentration using a Bioquant Image Analysis system. Drug effect (IC50) was assessed by comparing to untreated controls and measuring the length of cords formed and number of junctions.

HUVEC cell = experiment: Cell Migration Assay (Boyden chamber); format: cell-based; settings: Homo sapiens, HUVEC cells, 5 h, read-out: Inhibition of chemotaxis IC50
Experimental: as §2
Cell Migration Assay—Migration was assessed using a 48-well Boyden chamber including 8 μm pore size collagen-coated (10 μg/ml rat tail collagen; Collaborative Laboratories) polycarbonate filters (Osmonics, Inc.). The bottom chamber wells included 27-29 μl of DMEM medium alone (baseline) or medium containing chemo-attractant (bFGF, VEGF or Swiss 3T3 cell conditioned medium). The top chambers included 45 μl of HUVEC cell suspension (1×10^6 cells/ml) prepared in DMEM+1% BSA with or without the test compound. Followinf 5 h of incubation at 37° C., the membrane was rinsed with PBS, fixed and stained in Diff-Quick solutions. The filter was placed on a glass slide with the migrated cells facing down and cells on top were removed using a Kimwipe. The testing was performed in 4-6 replicates where five fields were counted from each well. Negative unstimulated control values were subtracted from stimulated control and drug treated values. Data wad plotted as mean migrated cell±S.D. IC50 was calculated from the plotted data.

IC50 (pro-heparanase (H60) [2]): 240 nM
IC50 (β-FGF): 400 nM
IC50 (VEGF): 400 nM
SMILES: O=C1/C(=C\c2ccc(-c3ccccc3Cl)o2)SC(=S)N1C1CCS(=O)(=O)C1 (stereo not shown) [Compound 59]
IC50 (HUVEC cells): 400 nM
IC50 (HUVEC cell): 250 nM

processing of pro-heparanase in vitro (Western blot) (pro-heparanase (H60) [1]): allowed processing of the H60
SMILES: O=S(=O)(O)CCS(=O)(=O)O [Compound E2269, ethane-1,2-disulfonic acid]

processing of pro-heparanase in vitro (Western blot) (pro-heparanase (H60) [1]): allowed processing of the H60
SMILES: CC(=O)N[C@H]1C(O)O[C@H](CO)[C@@H](O[C@@H]2OC(C(=O)O)=C[C@H](O)[C@H]2O)[C@@H]1O (stereo partly shown) [heparin disaccharide IVA]

processing of pro-heparanase in vitro (Western blot) (pro-heparanase (H60) [1]): No processing occurred
activation of pro-heparanase in vitro (heparanase activity) (pro-heparanase (H60) [1]): inhibited this activation
SMILES: CC(C)CC(=O)N[C@H](C(=O)N[C@H](C(=O)N[C@@H](CC(C)C)[C@@H](O)CC(=O)N[C@@H](C)C(=O)N[C@@H](CC(C)C)[C@@H](O)CC(=O)O)C(C)C)C(C)C [pepstatin] (Isovaleryl-VV[Sta]A[Sta]-OH)
% Inhibition (293 cell extract): 0%

Continued, molecule first:

SMILES: CCCNC(=O)[C@H]1O[C@@H]1C(=O)N[C@H](C(=O)N1CCC[C@H]1C(=O)O)[C@@H](C)CC [CA-074]
% Inhibition (293 cell extract): 96%
activation of pro-heparanase in vitro (heparanase activity) (pro-heparanase (H60) [1]): inhibited this activation

SMILES: O=C(O)CCCN1C(=O)C(=Cc2ccc(-c3cccc([N+](=O)[O-])c3)o2)SC1=S [Compound 4]
IC50 (pro-heparanase (H60) [2]): 160 nM
IC50 (β-FGF): 53400 nM
IC50 (VEGF): 17800 nM
heparanase activity inhibition (H53) in addition to inhibition of pro-heparanase activation (heparanase (H53)): dual activity
IC50 (heparanase (H53)): 3000 nM

SMILES: O=C(O)CCCN1C(=O)C(=Cc2ccc(-c3ccc(Cl)cc3)o2)SC1=S [Compound 6]
IC50 (pro-heparanase (H60) [2]): 870 nM
IC50 (β-FGF): 23900 nM
IC50 (VEGF): 17800 nM
heparanase activity inhibition (H53) in addition to inhibition of pro-heparanase activation (heparanase (H53)): dual activity
IC50 (heparanase (H53)): 36000 nM
IC50 (HUVEC cells): 3200 nM
IC50 (HUVEC cell): 4000 nM

SMILES: COCCCN1C(=O)C(=Cc2ccc(-c3ccc(Cl)cc3)o2)SC1=S [Compound 58]
IC50 (pro-heparanase (H60) [2]): 920 nM
IC50 (β-FGF): 200 nM
IC50 (VEGF): 200 nM
